Source: US9163042B2, “Prodrugs of pyridone amides useful as modulators of sodium channels” (VERTEX PHARMACEUTICALS INCORPORATED, priority 2013, dated 2015)
Read-outs that look alike come from different tables or passages of the source. One block for each molecule: values may come before it.

Key:
human Nav1.8 = human Nav1.8 (Homo sapiens (Human), UniProt Q9Y5Y9); assay: E-VIPR optical membrane potential assay with electrical stimulation (NaV1.8 IC50 activity); assay type: cell-based
Text: Sodium channels are voltage-dependent proteins that can be activated by inducing membrane voltage changes by applying electric fields. The electrical stimulation instrument and methods of use are described in Ion Channel Assay Methods PCT/US01/21652, herein incorporated by reference and are referred to as E-VIPR. The instrument comprises a microtiter plate handler, an optical system for exciting the coumarin dye while simultaneously recording the coumarin and oxonol emissions, a waveform generator, a current- or voltage-controlled amplifier, and a device for inserting electrodes in well. Under integrated computer control, this instrument passes user-programmed electrical stimulus protocols to cells within the wells of the microtiter plate.
24 hours before the assay on E-VIPR, HEK cells expressing human Nav1.8 were seeded in 384-well poly-lysine coated plates at 15,000-20,000 cells per well. […] Cells were grown in vented cap flasks, in 90% humidity and 5% CO2.
1) Pre-spotted compounds (in neat DMSO) into compound plates. […] Final compound plate volume was 80 μL (80-fold intermediate dilution from 1 μL DMSO spot; 160-fold final dilution after transfer to cell plate).
2) Prepared Hexyl Dye Solution.
3) Prepared cell plates. On the day of the assay, medium was aspirated and cells were washed three times with 100 μL of Bath1 Solution, maintaining 25 μL residual volume in each well.
4) Dispensed 25 μL per well of Hexyl Dye Solution into cell plates. Incubated for 20-35 minutes at room temp or ambient conditions.
5) Dispensed 80 μL per well of Bath1 into compound plates. Acid Yellow-17 (1 mM) was added and Potassium Chloride was altered from 4.5 to 20 mM depending on the NaV subtype and assay sensitivity.
6) Washed cell plates three times with 100 μL per well of Bath1, leaving 25 μL of residual volume. […] Incubated for 20-35 minutes at room temp/ambient condition.
7) Read Plate on E-VIPR. […] A pre-stimulus recording was performed for 0.5 seconds to obtain the un-stimulated intensities baseline. The stimulatory waveform was followed by 0.5 seconds of post-stimulation recording to examine the relaxation to the resting state.
Data was analyzed and reported as normalized ratios of emission intensities measured in the 460 nm and 580 nm channels. The response as a function of time was reported as the ratios obtained using the following formula: […]
The data was further reduced by calculating the initial (Ri) and final (Rf) ratios. These were the average ratio values during part or all of the pre-stimulation period, and during sample points during the stimulation period. The response to the stimulus R=Rf/Ri was then calculated and reported as a function of time.
Control responses were obtained by performing assays in the presence of a compound with the desired properties (positive control), such as tetracaine, and in the absence of pharmacological agents (negative control). Responses to the negative (N) and positive (P) controls were calculated as above.

[1] = Chemical and physical stability of crystalline Form B (XRPD, HPLC impurity profile, appearance); assay type: physicochemical
Text: Chemically and physically stable means no changes were observed on the X-ray powder diffraction and HPLC impurity profiles (e.g., less than 0.2% variance) and there were no observed changes in physical appearance of the samples.

Aqueous solubility study = assay type: physicochemical; conditions: for solubility at 24 h: thermodynamic from solid
Experimental: The aqueous solubility of compound 9 and 9a were determined according to the following procedure. Solubility data was determined at ambient conditions by equilibrating the compound with water on a shaking bed for 24 hours, followed by centrifugation and separation of the saturated solutions. The pH value of each media was measured before centrifugation, and the saturated solutions were assayed by HPLC.

[2] = Rat oral pharmacokinetic study; assay type: in vivo, Sprague Dawley rats; conditions: Sprague Dawley, mean ± SD
Experimental: (§1) Sample Analysis. […] Before extraction, plasma samples were diluted using blank plasma at an appropriate dilution factor, as necessary, depending on the dose level. […] After centrifugation, the supernatant extract (10 μL) was injected onto the LC/MS/MS system. The HPLC system included a Phenomenex Synergy Kinetix C8 column, 2.6 micron, 2.0 mm diameter×75 mm long eluted with a gradient mobile phase consisting of 0.1% formic acid in water or in acetonitrile.
(§2) The analytes were detected by MS/MS with Electrospray Ionization (ESI) in the mode of multiple reaction monitoring (MRM). […] The intra-day and inter-day assay accuracy was within 20% of the nominal values. The intra- and inter-day assay variability was ≦20%.
(§3) Pharmacokinetic Data Analysis.
(§4) Key pharmacokinetic parameters such as AUCall, AUCextra, Cmax, tmax, Cl, Vss and t1/2 were determined.
(§5) Statistical Data Analysis. Descriptive statistical data of pharmacokinetic parameters were calculated, including the mean, standard deviation (SD), using Watson LIMS version 7.4 SP3 or Microsoft Excel 2000.
Groups of male and female Sprague Dawley rats (n=3 per dose group) were administered single nominal oral doses of 10, 100, 400, 640, 1000 mg/kg (for males) and 30, 100, 300, 640, 1000 mg/kg (for females) of compound 9 by gavage. Compound 9 was formulated in either 30% PEG400 and 10% TPGS in water or 5% TPGS, 5% PVP-K30 in 50 mM Citrate, pH 5. Animals had free access to food and water before and after dosing. Blood samples (approximately 0.25 mL each) were collected via a carotid artery catheter prior to dosing and at 0.25, 0.5, 1, 2, 4, 8, 12, 24, 48 and 72 hours post dose. Each blood sample was collected into a tube that was kept on wet ice and contained potassium EDTA as the anticoagulant. Plasma was separated and stored at approximately −70° C. until analysis.

[3] = Rat IV pharmacokinetic study; assay type: in vivo, Sprague Dawley rats; conditions: Sprague Dawley, male rat, single IV bolus 1 mg/kg of compound 9, DMI vehicle, analyte 9a in plasma; for AUC: male, rat, plasma, iv, 1 mg/kg
Experimental: as §1, §2, §3, §4, §5
Male Sprague Dawley rats (n=3) were administered a single nominal IV bolus dose of 1 mg/kg of compound 9 via a jugular vein cannula. […] Animals had free access to food and water before and after dosing. Blood samples (approximately 0.25 mL each) were collected via a carotid artery catheter prior to dosing and at 5 min, 10 min, 0.25, 0.5, 1, 2, 4, 8, 12, 24 hours post dose. Each blood sample was collected into a tube that was kept on wet ice and contained potassium EDTA as the anticoagulant. Plasma was separated and stored at approximately −70° C. until analysis.
Plasma concentration vs. time data were subjected to noncompartmental pharmacokinetic (PK) analysis.

[4] = female rat, single PO 30 mg/kg of compound 9, 5% TPGS/5% PVP-K30/50 mM Citrate pH 5, analyte 9a in plasma
[5] = female rat, single PO 100 mg/kg of compound 9, 5% TPGS/5% PVP-K30/50 mM Citrate pH 5, analyte 9a in plasma
[6] = female rat, single PO 300 mg/kg of compound 9, 5% TPGS/5% PVP-K30/50 mM Citrate pH 5, analyte 9a in plasma
[7] = female rat, single PO 640 mg/kg of compound 9, 5% TPGS/5% PVP-K30/50 mM Citrate pH 5, analyte 9a in plasma
[8] = female rat, single PO 1000 mg/kg of compound 9, 5% TPGS/5% PVP-K30/50 mM Citrate pH 5, analyte 9a in plasma
[9] = male rat, single PO 10 mg/kg of compound 9, 5% TPGS/5% PVP-K30/50 mM Citrate pH 5, analyte 9a in plasma
[10] = male rat, single PO 100 mg/kg of compound 9, 5% TPGS/5% PVP-K30/50 mM Citrate pH 5, analyte 9a in plasma
[11] = male rat, single PO 400 mg/kg of compound 9, 5% TPGS/5% PVP-K30/50 mM Citrate pH 5, analyte 9a in plasma
[12] = male rat, single PO 640 mg/kg of compound 9, 5% TPGS/5% PVP-K30/50 mM Citrate pH 5, analyte 9a in plasma
[13] = male rat, single PO 1000 mg/kg of compound 9, 5% TPGS/5% PVP-K30/50 mM Citrate pH 5, analyte 9a in plasma

Sequence of human Nav1.8 (Q9Y5Y9 whole entry): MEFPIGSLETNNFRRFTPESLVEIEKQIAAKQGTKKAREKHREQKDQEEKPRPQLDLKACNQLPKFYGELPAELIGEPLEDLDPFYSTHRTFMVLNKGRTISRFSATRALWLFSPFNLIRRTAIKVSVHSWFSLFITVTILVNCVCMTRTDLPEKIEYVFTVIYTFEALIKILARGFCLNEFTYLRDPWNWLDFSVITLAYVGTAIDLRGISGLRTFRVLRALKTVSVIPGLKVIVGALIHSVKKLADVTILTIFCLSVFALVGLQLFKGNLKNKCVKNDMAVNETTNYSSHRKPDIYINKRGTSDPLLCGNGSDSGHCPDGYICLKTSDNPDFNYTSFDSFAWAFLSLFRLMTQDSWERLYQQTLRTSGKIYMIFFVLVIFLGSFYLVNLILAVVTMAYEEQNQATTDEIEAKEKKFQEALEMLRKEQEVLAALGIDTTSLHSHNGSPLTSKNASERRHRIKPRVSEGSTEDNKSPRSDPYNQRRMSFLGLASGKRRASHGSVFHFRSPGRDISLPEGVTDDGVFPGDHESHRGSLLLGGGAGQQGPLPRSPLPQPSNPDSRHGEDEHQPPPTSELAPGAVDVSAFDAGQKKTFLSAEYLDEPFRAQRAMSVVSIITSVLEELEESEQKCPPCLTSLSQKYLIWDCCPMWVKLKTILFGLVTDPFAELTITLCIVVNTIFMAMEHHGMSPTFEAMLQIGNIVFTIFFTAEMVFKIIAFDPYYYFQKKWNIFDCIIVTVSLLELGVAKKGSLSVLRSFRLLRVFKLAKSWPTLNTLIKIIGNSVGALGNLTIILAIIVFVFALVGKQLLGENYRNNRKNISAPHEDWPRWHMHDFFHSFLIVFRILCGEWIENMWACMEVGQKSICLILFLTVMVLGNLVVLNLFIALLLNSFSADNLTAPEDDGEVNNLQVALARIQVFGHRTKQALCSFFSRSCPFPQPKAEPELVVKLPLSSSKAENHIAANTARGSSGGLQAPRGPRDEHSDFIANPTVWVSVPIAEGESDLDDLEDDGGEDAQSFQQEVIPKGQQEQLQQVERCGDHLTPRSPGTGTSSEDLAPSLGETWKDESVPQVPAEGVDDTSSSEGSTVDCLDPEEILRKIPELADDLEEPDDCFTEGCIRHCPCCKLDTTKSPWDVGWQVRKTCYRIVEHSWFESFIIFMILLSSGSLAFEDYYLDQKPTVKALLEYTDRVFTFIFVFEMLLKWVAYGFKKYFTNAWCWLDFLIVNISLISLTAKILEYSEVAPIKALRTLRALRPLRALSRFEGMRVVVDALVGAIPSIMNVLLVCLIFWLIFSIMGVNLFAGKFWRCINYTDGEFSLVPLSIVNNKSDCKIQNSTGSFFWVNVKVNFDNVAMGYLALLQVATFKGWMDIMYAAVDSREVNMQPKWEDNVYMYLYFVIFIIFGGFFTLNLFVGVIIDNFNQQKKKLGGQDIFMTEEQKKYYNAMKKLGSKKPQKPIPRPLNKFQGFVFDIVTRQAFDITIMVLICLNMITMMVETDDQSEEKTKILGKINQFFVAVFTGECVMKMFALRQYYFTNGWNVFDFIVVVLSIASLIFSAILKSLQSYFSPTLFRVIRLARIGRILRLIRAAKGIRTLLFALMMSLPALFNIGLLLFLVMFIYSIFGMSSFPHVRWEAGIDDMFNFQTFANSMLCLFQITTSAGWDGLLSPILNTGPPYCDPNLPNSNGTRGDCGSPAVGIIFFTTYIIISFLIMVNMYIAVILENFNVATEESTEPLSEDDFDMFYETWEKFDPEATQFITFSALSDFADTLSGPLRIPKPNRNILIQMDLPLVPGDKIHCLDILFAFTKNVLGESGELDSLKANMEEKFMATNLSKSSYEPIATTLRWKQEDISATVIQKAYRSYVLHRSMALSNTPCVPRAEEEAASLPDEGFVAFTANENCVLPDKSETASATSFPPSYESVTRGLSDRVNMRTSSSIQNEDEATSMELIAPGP

IC50 (human Nav1.8): 4 nM
Compound: COc1cc(F)ccc1Oc1cc(Cl)c(Cl)cc1C(=O)Nc1ccn(COP(=O)(O)O)c(=O)c1 [Compound 1, (4-(4,5-dichloro-2-(4-fluoro-2-methoxyphenoxy)benzamido)-2-oxopyridin-1(2H)-yl)methyl dihydrogen phosphate]

IC50 (human Nav1.8): 457 nM
Compound: O=C(Nc1ccn(COP(=O)(O)O)c(=O)c1)c1cc(C(F)(F)F)ccc1Oc1ccc(F)cc1 [Compound 18, (4-(2-(4-fluorophenoxy)-5-(trifluoromethyl)benzamido)-2-oxopyridin-1(2H)-yl)methyl dihydrogen phosphate]

IC50 (human Nav1.8): 86 nM
Compound: Cc1cc(F)ccc1Oc1ccc(C(F)(F)F)cc1C(=O)Nc1ccn(COP(=O)(O)O)c(=O)c1 [Compound 10, (4-(2-(4-fluoro-2-methylphenoxy)-5-(trifluoromethyl)benzamido)-2-oxopyridin-1(2H)-yl)methyl dihydrogen phosphate]

IC50 (human Nav1.8): 329 nM
Compound: Cc1cc(F)ccc1Oc1cc(Cl)ccc1C(=O)Nc1ccn(COP(=O)(O)O)c(=O)c1 [Compound 13, (4-(4-chloro-2-(4-fluoro-2-methylphenoxy)benzamido)-2-oxopyridin-1(2H)-yl)methyl dihydrogen phosphate]

IC50 (human Nav1.8): 28 nM
Compound: COc1cc(F)ccc1Oc1cc(C(F)(F)C(F)(F)F)ccc1C(=O)Nc1ccn(COP(=O)(O)O)c(=O)c1 [Compound 2, (4-(2-(4-fluoro-2-methoxyphenoxy)-4-(perfluoroethyl)benzamido)-2-oxopyridin-1(2H)-yl)methyl dihydrogen phosphate]

Compound: Cc1cc(F)ccc1Oc1cc(C(F)(F)F)ccc1C(=O)Nc1ccn(COP(=O)(O)O)c(=O)c1 [crystalline Form B, (4-(2-(4-fluoro-2-methylphenoxy)-4-(trifluoromethyl)benzamido)-2-oxopyridin-1(2H)-yl)methyl dihydrogen phosphate]
chemical and physical stability ([1]; 5° C./dry, 40° C./dry, 25° C. with relative humidity of up to 60%, 40° C. with relative humidity of up to 75%): chemically and physically stable for at least one month | chemical and physical stability ([1]; open dish at 40° C., 40° C. with RH up to 75%, 25° C. with RH up to 60%, closed dish at 5° C. with a desiccator): chemically and physically stable for at least three months

solubility at 24 h (Aqueous solubility study; aqueous medium, simulated gastric fluid, pH 1.2, crystalline, ambient conditions, 24 hours, read-out: Solubility): < 1 µg/mL | Solubility (Aqueous solubility study; pH 6.0, crystalline, ambient conditions, 24 hours): <1 µg/mL | solubility at 24 h (Aqueous solubility study; water, pH 6.0, read-out: aqueous solubility in water): < 1 µg/mL | AUC [2, 4]: 99200 ± 6880 ng·h/mL | Cmax [2, 4]: 3330 ± 430 ng/mL | Tmax [2, 4]: 6.67 ± 2.31 h | half-life [2, 4]: 10.8 ± 1.6 h | AUC [2, 5]: 187000 ± 17500 ng·h/mL | Cmax [2, 5]: 5820 ± 580 ng/mL | Tmax [2, 5]: 12 h | half-life [2, 5]: 9.15 ± 0.44 h | AUC [2, 6]: 282000 ± 74200 ng·h/mL | Cmax [2, 6]: 7900 ± 1300 ng/mL | Tmax [2, 6]: 10.7 ± 2.31 h | half-life [2, 6]: 13.1 ± 2.65 h | AUC [2, 7]: 324000 ± 32800 ng·h/mL | Cmax [2, 7]: 10000 ± 1450 ng/mL | Tmax [2, 7]: 9.33 ± 2.31 h | half-life [2, 7]: 7.51 ± 1.86 h | AUC [2, 8]: 345000 ± 69600 ng·h/mL | Cmax [2, 8]: 10600 ± 3580 ng/mL | Tmax [2, 8]: 13.3 ± 9.24 h | half-life [2, 8]: 7.9 ± 3.37 h | AUC [2, 9]: 3600 ± 240 ng·h/mL | Cmax [2, 9]: 290 ± 50 ng/mL | Tmax [2, 9]: 5.33 ± 2.31 h | half-life [2, 9]: 3.8 ± 0.73 h | AUC [2, 10]: 24800 ± 4600 ng·h/mL | Cmax [2, 10]: 1670 ± 190 ng/mL | Tmax [2, 10]: 8 h | half-life [2, 10]: 5.36 ± 2.3 h | AUC [2, 11]: 68600 ± 25700 ng·h/mL | Cmax [2, 11]: 3740 ± 1250 ng/mL | Tmax [2, 11]: 5.67 ± 4.04 h | half-life [2, 11]: 5.2 ± 1.96 h | AUC [2, 12]: 74900 ± 24100 ng·h/mL | Cmax [2, 12]: 4760 ± 980 ng/mL | Tmax [2, 12]: 6 ± 3.46 h | half-life [2, 12]: 6.91 ± 1.84 h | AUC [2, 13]: 88500 ± 41000 ng·h/mL | Cmax [2, 13]: 4540 ± 910 ng/mL | Tmax [2, 13]: 6.67 ± 2.31 h | half-life [2, 13]: 7.95 ± 2.24 h | C0 [3]: 259 ng/mL | clearance [3]: 18.7 mL/min/kg | Vd ([3]; read-out: Vss): 3.77 L/kg | half-life ([3]; read-out: t½ (converted)): 2.43 h | AUC ([3]; read-out: AUCall): 592 ng·h/mL | AUC ([3]; read-out: AUCextra): 611 ng·h/mL
Compound: Cc1cc(F)ccc1Oc1cc(C(F)(F)F)ccc1C(=O)Nc1cc[nH]c(=O)c1 [Compound 9a, 2-(4-fluoro-2-methylphenoxy)-N-(2-oxo-1,2-dihydropyridin-4-yl)-4-(trifluoromethyl)benzamide]
